Test results published in patent US20080262080A1, “Allergy Suppressive Agent” (KYUSHU UNIVERSITY, NATIONAL UNIVERSITY CORPORATION, priority 2004, published 2008).

Key:
[1] = system: FcεRI α- and γ-chains mRNA; experiment: mRNA transcription level of FcεRI α- and γ-chains in KU812 cells (RT-PCR, Southern hybridization); format: cell-based, human; details: serum-free, G3PDH control
Description: The mRNA expression of each of the FcεRI α- and γ-chains was detected by RT-PCR and southern hybridization using specific probes. G3PDH (glyceraldehyde-3-phosphate dehydrogenase) was employed as a control.
KU812 cells (1×10^6 cells/mL) were incubated under serum-free conditions in RPMI 1640 medium to which chrysin had been added. After incubating, the cells were washed with PBS once and then completely lysed by adding 1 mL of Trizol (Invitrogen) per 1×10^7 cells and quickly suspending. After allowing to stand at room temperature for 5 min, 0.2 mL of chloroform was added and the mixture was vigorously stirred and overturned. […] The concentration of the total RNA diluted 50-fold with water was measured using a wavelength of 260 nm. […]
The PCR mixture was prepared by mixing 1 μL of the cDNA, 0.8 μL of 2 mM dNTP, 0.6 μL of MgCl2, 0.5 μL of […] sense primer, 0.5 μL of 20 μM antisense primer, 0.1 μL of Taq DNA polymerase (Fermentas) and 1 μL of 10× Taq buffer accompanying Taq DNA polymerase and adjusting the total volume to 10 μL with distilled water. […] Next, amplification was conducted in 13 to 15 cycles (each cycle consisting of 1 min at 95° C., 1 min at 60° C. and 1 min at 72° C. The PCR product was electrophoresed on a 1% agarose gel and the amplified DNA was detected by Southern blotting. […]

[2] = system: high-affinity IgE receptor (FcεRI); experiment: FcεRI expression amount on the cell surface of KU812 cells by flow cytometry; format: cell-based, human; details: for FcεRI expression suppressive rate (%): 24 hours
Description: By using antihuman FcRI antibody (CRA1), the FcεRI expression amount on the surface of human basophil-like cell line KU812 cells was analyzed by flow cytometry. Cells having been incubated by adding DMSO alone were compared with cells having been incubated by adding chrysin. The ratio of overexpression of FcεRI is indicated in percentage. As a basal medium for incubating cells, use was made of RPMI 1640 (Nissui, Japan), to which 100 U/mL of penicillin (Meiji Pharmaceutical Company, Tokyo, Japan), […] of streptomycin (Meiji Pharmaceutical Company, Tokyo, Japan), 12.5 mM of MaHCO3 (Wako Pure Chemical Industries, Osaka, Japan) and 10 mM of HEPES Wako Pure Chemical Industries) had been added. Fetal bovine serum (FBS) purchased form Bio Source International was added to the basal medium to give a concentration of 5 to 10%. Human basophil-like cell line KU812 employed in this experiment was assigned by Japan Collection of Research Bioresources (JCRB) and subcultured and maintained in RPMI 1640 medium comprising 5 to 10% of FBS at 37° C. in 5% CO2 gas under humidification. KU812 cells were incubated in RPMI 1640 medium, to which chrysin dissolved in DMSO had been added, for 0 to 24 hours. A system wherein the cells were incubated in the medium comprising DMSO alone was used as a control. After incubating, the cells were collected and incubated in 5% FBS-PBS, to which 10 μg/mL of antihuman FcεRI α chain mouse monoclonal antibody CRA-1 (Kyokuto Pharmaceutical) had been added, at 4° C. for 40 to 60 min. As a negative control, 10 μg/mL of mouse control IgG2b antibody (DAKO) was used. Then, the cells were washed with ice-cooled PBS once and incubated in 5% FBS-PBS, to which 10 μg/mL of antimouse IgG2b FITC-labeled antibody (Protos Immunoresearch) had been added, at 4° C. for 40 to 60 min. After incubating, the cells were washed with PBS and then resuspended in PBS. The cell suspension thus obtained was analyzed by flow cytometry. In the flow cytometry analysis, FACS Calibur (Becton Sickinson, Sunnyvale, Calif.) was employed. The secondary antibody reaction and the subsequent procedures were conducted in the dark and the cells were preserved on ice while conducting the analysis. KU812 cells (5×10^5 cells/mL) was incubated in 5% bovine fetal serum comprising RPMI 1640 medium, to which chrysin (0, 1, 5 and 10 μM) and apigenin (purchased from Aldrich Chem. Co., St. Louis, Mo.; 0, 1, 5 and 10 μM) had been added, for 24 hours. After incubating, the FcεRI expression level on the cell surface was measured by flow cytometry (experimental procedure: see [0047]).

`O=c1cc(-c2ccccc2)oc2cc(O)cc(O)c12` [Chrysin, 5,7-dihydroxyflavone] was tested, and the “expression of FcεRI at the mRNA level” value [1] was “suppressed”, the “FcεRI expression amount on cell surface” value ([2]; flow cytometry with CRA1 antibody, compared with DMSO alone) was “lowering” and the “FcεRI expression suppressive rate (%)” value ([2]; single agent 1 μM) was 0%. For the same molecule, the “FcεRI expression suppressive rate (%)” value ([2]; single agent 5 μM) was 11.5% and the “FcεRI expression suppressive rate (%)” value ([2]; single agent 10 μM) was 19.8%.
